From patent US11903388B2 (priority 2018, dated 2024)

Test system: Aspergillus parasiticus B62
Type: cell-based

SMILES: Cc1cc(OC(=O)c2c(C)cc(O)cc2O)cc(O)c1C(=O)O [Lecanoric acid]
- growth: inhibitory effects

SMILES: COC(=O)c1c(C)cc(O)cc1O [methyl-orsellinate]
- growth: inhibitory effects
